Experimental data reported in patent publication US11691949B2, “Quinoline sulfonamide compounds and their use as antibacterial agents” (OTAGO INNOVATION LIMITED, priority 2017, dated 2023).
In brackets after ≈: the same amount, converted by molar mass. Read-outs that look alike come from different tables or passages of the source.

What was measured:
Format in all cases: cell-based
S. uberis ATCC 19436 [1] = test: MIC by broth microdilution, S. uberis; settings: Streptococcus uberis
Procedure, shortened: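 This broth microdilution assay used S. uberis ATCC 19436 in Todd Hewitt Broth, with zinc sulphate heptahydrate added where required to a final 50 μM. Inhibitor concentration ranges came from two-fold serial dilutions in 96-well flat bottom plates at 200 μl. Approximately 5×10^5 cfu/mL cells were incubated for 24 h at 37° C. and 200 rpm. Wells were then read at OD600 on a Varioskan Flash reader.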

S. aureus ATCC 6538 [2] = test: MIC by broth microdilution, S. aureus; settings: Staphylococcus aureus
Procedure, shortened: (§1)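 Two-fold serial dilutions were tested in broth at ~5×10^5 cfu/mL: S. aureus in TSB or CAMHB, E. coli in LB or CAMHB, with 50 μM zinc sulphate added as required. After 24 h at 37° C, 200 rpm, MIC was the lowest concentration showing no growth by OD600.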

E. coli ATCC 10596 = test: MIC by broth microdilution, E. coli; settings: Escherichia coli
Procedure, shortened: as §1

S. uberis ATCC 19436 [3] = test: MBC by Miles-Misra drop-plate method, S. uberis; settings: Streptococcus uberis
Procedure: (§2) Antibacterial susceptibility testing was performed in triplicate (biological) by measuring minimum inhibitory concentrations (MICs) by broth microdilution in 96-well flat bottom microtiter plates (ThermoFisher Scientific, New Zealand). S. uberis ATCC 19436, S. aureus ATCC 6538, or E. coli ATCC 10596 cells grown overnight were diluted to an OD600 of approximately 0.025, so that the final concentration of cells in the MIC assay was approximately 5×10^5 cfu/mL in media as follows: S. uberis; Todd Hewitt Broth (THB), S. aureus; Tryptic Soy Broth (TSB) and Cation Adjusted Muller Hinton Broth (CAMHB), and E. coli; Lysogeny Borth (LB) and CAMHB, before being dispensed into microtiter wells. As required additional sterile Zinc Sulphate (Heptahydrate) was supplemented into the media, so the final concentration was 50 μM. Test compounds were added to starting wells and two-fold serial dilutions were undertaken to generate a range of inhibitor concentrations at a final volume of 200 μl. Media and test compound-free (untreated) controls were included in each microtiter plate in triplicate. After 24 h incubation at 37° C. and 200 rpm, the OD600 of wells were read using a Varioskan Flash plate reader (ThermoFisher Scientific, New Zealand). The MIC was reported as the lowest concentration of the test compound for which no growth occurred, as determined by OD600 readings. The minimum bactericidal concentration (MBC) was determined using the Miles-Misra drop-plate method to measure the viability of cells in response to test compound challenge.

S. aureus ATCC 6538 [4] = test: MBC by Miles-Misra drop-plate method, S. aureus; settings: Staphylococcus aureus
Procedure: as §2

E. coli ATCC 10536 = test: MBC by Miles-Misra drop-plate method, E. coli; settings: Escherichia coli
Procedure: as §2

[5] = ATCC19436, No Zinc, read-out: S. uberis ATCC 19436 MIC
[6] = ATCC19436, Zinc (50 μM), read-out: S. uberis ATCC 19436 MIC
[7] = ATCC6538, No Zinc, read-out: S. aureus ATCC 6538 MIC
[8] = ATCC6538, Zinc (50 μM), read-out: S. aureus ATCC 6538 MIC
[9] = ATCC 10536 / ATCC 10596, No Zinc, read-out: E. coli ATCC 10536 MIC
[10] = ATCC 10536 / ATCC 10596, Zinc (50 μM), read-out: E. coli ATCC 10536 MIC
[11] = ATCC19436, No Zinc, read-out: S. uberis ATCC 19436 MBC
[12] = ATCC19436, Zinc (50 μM), read-out: S. uberis ATCC 19436 MBC
[13] = ATCC6538, No Zinc, read-out: S. aureus ATCC 6538 MBC
[14] = ATCC6538, Zinc (50 μM), read-out: S. aureus ATCC 6538 MBC
[15] = ATCC10536, No Zinc, read-out: E. coli ATCC 10536 MBC
[16] = ATCC10536, Zinc (50 μM), read-out: E. coli ATCC 10536 MBC

O=S(=O)(Nc1cccc2ccc(CNCCCN3CCOCC3)nc12)c1ccc(C(F)(F)F)cc1 [ZDR116, N-(2-(((3-Morpholinopropyl)amino)methyl)quinolin-8-yl)-4-(trifluoromethyl)benzenesulfonamide]
MIC (S. uberis ATCC 19436 [1]; [5]): 32 µg/mL (≈ 62.9 µM)
MIC (S. uberis ATCC 19436 [1]; [6]): 2 µg/mL (≈ 3.93 µM)
MIC (S. aureus ATCC 6538 [2]; [7]): 64 µg/mL (≈ 126 µM)
MIC (S. aureus ATCC 6538 [2]; [8]): 64 µg/mL (≈ 126 µM)
MIC (E. coli ATCC 10596; [9]): > 256 µg/mL
MIC (E. coli ATCC 10596; [10]): > 256 µg/mL
MBC (S. uberis ATCC 19436 [3]; [11]): 64 µg/mL (≈ 126 µM)
MBC (S. uberis ATCC 19436 [3]; [12]): 2 µg/mL (≈ 3.93 µM)
MBC (S. aureus ATCC 6538 [4]; [13]): 128 µg/mL (≈ 252 µM)
MBC (S. aureus ATCC 6538 [4]; [14]): > 256 µg/mL
MBC (E. coli ATCC 10536; [15]): > 256 µg/mL
MBC (E. coli ATCC 10536; [16]): > 256 µg/mL

CN1CCN(CCCNCc2ccc3cccc(NS(=O)(=O)c4ccc(C(F)(F)F)cc4)c3n2)CC1 [ZDR117, N-(2-(((3-(4-Methylpiperazin-1-yl)propyl)amino)methyl)quinolin-8-yl)-4-(trifluoromethyl)benzenesulfonamide di-trifluoroacetate]
MIC (S. uberis ATCC 19436 [1]; ATCC19436, read-out: S. uberis ATCC 19436 MIC, No Zinc): 16 µg/mL (≈ 30.7 µM)
MIC (S. uberis ATCC 19436 [1]; ATCC19436, read-out: S. uberis ATCC 19436 MIC, Zinc (50 μM)): 4 µg/mL (≈ 7.67 µM)
MIC (S. aureus ATCC 6538 [2]; ATCC6538, read-out: S. aureus ATCC 6538 MIC, No Zinc): 64 µg/mL (≈ 123 µM)
MIC (S. aureus ATCC 6538 [2]; ATCC6538, read-out: S. aureus ATCC 6538 MIC, Zinc (50 μM)): 64 µg/mL (≈ 123 µM)
MIC (E. coli ATCC 10596; ATCC 10536 / ATCC 10596, read-out: E. coli ATCC 10536 MIC, No Zinc): 128 µg/mL (≈ 245 µM)
MIC (E. coli ATCC 10596; ATCC 10536 / ATCC 10596, read-out: E. coli ATCC 10536 MIC, Zinc (50 μM)): 32 µg/mL (≈ 61.3 µM)
MBC (S. uberis ATCC 19436 [3]; ATCC19436, read-out: S. uberis ATCC 19436 MBC, No Zinc): 16 µg/mL (≈ 30.7 µM)
MBC (S. uberis ATCC 19436 [3]; ATCC19436, read-out: S. uberis ATCC 19436 MBC, Zinc (50 μM)): 4 µg/mL (≈ 7.67 µM)
MBC (S. aureus ATCC 6538 [4]; ATCC6538, read-out: S. aureus ATCC 6538 MBC, No Zinc): 64 µg/mL (≈ 123 µM)
MBC (S. aureus ATCC 6538 [4]; ATCC6538, read-out: S. aureus ATCC 6538 MBC, Zinc (50 μM)): 64 µg/mL (≈ 123 µM)
MBC (E. coli ATCC 10536; ATCC10536, read-out: E. coli ATCC 10536 MBC, No Zinc): 256 µg/mL (≈ 491 µM)
MBC (E. coli ATCC 10536; ATCC10536, read-out: E. coli ATCC 10536 MBC, Zinc (50 μM)): 64 µg/mL (≈ 123 µM)

O=S(=O)(Nc1cccc2ccc(/C=N/NC(=S)NCCN3CCOCC3)nc12)c1ccc(C(F)(F)F)cc1 [ZDR119, (E)-N-(2-Morpholinoethyl)-2-((8-((4-(trifluoromethyl)phenyl)sulfonamido)quinolin-2-yl)methylene)hydrazine-1-carbothioamide]
MIC (S. uberis ATCC 19436 [1]; [5]): 4 µg/mL (≈ 7.06 µM)
MIC (S. uberis ATCC 19436 [1]; [6]): 0.125 µg/mL (≈ 0.221 µM)
MIC (S. aureus ATCC 6538 [2]; [7]): 4 µg/mL (≈ 7.06 µM)
MIC (S. aureus ATCC 6538 [2]; [8]): 4 µg/mL (≈ 7.06 µM)
MIC (E. coli ATCC 10596; [9]): > 256 µg/mL
MIC (E. coli ATCC 10596; [10]): > 256 µg/mL
MBC (S. uberis ATCC 19436 [3]; [11]): 16 µg/mL (≈ 28.2 µM)
MBC (S. uberis ATCC 19436 [3]; [12]): 1 µg/mL (≈ 1.76 µM)
MBC (S. aureus ATCC 6538 [4]; [13]): > 256 µg/mL
MBC (S. aureus ATCC 6538 [4]; [14]): 32 µg/mL (≈ 56.5 µM)
MBC (E. coli ATCC 10536; [15]): > 256 µg/mL
MBC (E. coli ATCC 10536; [16]): > 256 µg/mL

CC(=O)N/N=C/c1ccc2cccc(NS(=O)(=O)c3ccc(C(F)(F)F)cc3)c2n1 [ZDR120, (E/Z)—N-(2-((2-Acetylhydrazineylidene)methyl)quinolin-8-yl)-4-(trifluoromethyl)benzenesulfonamide]
MIC (S. uberis ATCC 19436 [1]; [5]): 32 µg/mL (≈ 73.3 µM)
MIC (S. uberis ATCC 19436 [1]; [6]): 0.5 µg/mL (≈ 1.15 µM)
MIC (S. aureus ATCC 6538 [2]; [7]): 16 µg/mL (≈ 36.7 µM)
MIC (S. aureus ATCC 6538 [2]; [8]): 16 µg/mL (≈ 36.7 µM)
MIC (E. coli ATCC 10596; [9]): > 256 µg/mL
MIC (E. coli ATCC 10596; [10]): > 256 µg/mL
MBC (S. uberis ATCC 19436 [3]; [11]): > 256 µg/mL
MBC (S. uberis ATCC 19436 [3]; [12]): 1 µg/mL (≈ 2.29 µM)
MBC (S. aureus ATCC 6538 [4]; [13]): > 256 µg/mL
MBC (S. aureus ATCC 6538 [4]; [14]): > 256 µg/mL
MBC (E. coli ATCC 10536; [15]): > 256 µg/mL
MBC (E. coli ATCC 10536; [16]): > 256 µg/mL

O=C(N/N=C/c1ccc2cccc(NS(=O)(=O)c3ccc(C(F)(F)F)cc3)c2n1)c1cccnc1 [ZDR121, (E)-N-(2-((2-Nicotnoylhydrazineylidene)methyl)quinolin-8-yl)-4-(trifluoromethyl)benzenesulfonamide]
MIC (S. uberis ATCC 19436 [1]; [5]): 32 µg/mL (≈ 64.1 µM)
MIC (S. uberis ATCC 19436 [1]; [6]): 2 µg/mL (≈ 4 µM)
MIC (S. aureus ATCC 6538 [2]; [7]): 16 µg/mL (≈ 32 µM)
MIC (S. aureus ATCC 6538 [2]; [8]): 16 µg/mL (≈ 32 µM)
MIC (E. coli ATCC 10596; [9]): > 256 µg/mL
MIC (E. coli ATCC 10596; [10]): > 256 µg/mL
MBC (S. uberis ATCC 19436 [3]; [11]): 256 µg/mL (≈ 513 µM)
MBC (S. uberis ATCC 19436 [3]; [12]): 32 µg/mL (≈ 64.1 µM)
MBC (S. aureus ATCC 6538 [4]; [13]): 64 µg/mL (≈ 128 µM)
MBC (S. aureus ATCC 6538 [4]; [14]): 256 µg/mL (≈ 513 µM)
MBC (E. coli ATCC 10536; [15]): > 256 µg/mL
MBC (E. coli ATCC 10536; [16]): > 256 µg/mL

O=C(N/N=C/c1ccc2cccc(NS(=O)(=O)c3ccc(C(F)(F)F)cc3)c2n1)c1ccncc1 [ZDR122, (E)-N-(2-((2-Isonicotinoylhydrazneylidene)methyl)quinolin-8-yl)-4-(trifluoromethyl)benzenesulfonamide]
MIC (S. uberis ATCC 19436 [1]; [5]): 32 µg/mL (≈ 64.1 µM)
MIC (S. uberis ATCC 19436 [1]; [6]): 2 µg/mL (≈ 4 µM)
MIC (S. aureus ATCC 6538 [2]; [7]): 16 µg/mL (≈ 32 µM)
MIC (S. aureus ATCC 6538 [2]; [8]): 16 µg/mL (≈ 32 µM)
MIC (E. coli ATCC 10596; [9]): > 256 µg/mL
MIC (E. coli ATCC 10596; [10]): > 256 µg/mL
MBC (S. uberis ATCC 19436 [3]; [11]): 128 µg/mL (≈ 256 µM)
MBC (S. uberis ATCC 19436 [3]; [12]): 32 µg/mL (≈ 64.1 µM)
MBC (S. aureus ATCC 6538 [4]; [13]): 32 µg/mL (≈ 64.1 µM)
MBC (S. aureus ATCC 6538 [4]; [14]): 128 µg/mL (≈ 256 µM)
MBC (E. coli ATCC 10536; [15]): > 256 µg/mL
MBC (E. coli ATCC 10536; [16]): > 256 µg/mL
